These results are taken from patent US5681964A, “Permeable, non-irritating prodrugs of nonsteroidal and steroidal agents” (University of Kentucky Research Foundation, priority 1994, dated 1997).

One data set in a line: t1/2 in serum (Table 1). Type of data set: in vitro ADME.
A short description of data set [1]: t1/2 in PB (7.4) (Table 1). Type of data set: physicochemical. Particulars: for t1/2 in PB (7.4): result in words; for half-life: pH 7.4.
A short description of a further data set: Solubility (Table 1). Type of data set: physicochemical.
For the next data set, the system named is rabbit eye. As to the kind of experiment: irritancy in the rabbit eye, daily drops for seven days. Type of data set: in vivo. Particulars: for degree of irritation to the cornea as compared to flurbiprofen in the acid form: 25 microliters (monoester, flurbiprofen) or 30 microliters (diester) into each eye daily, seven days, slit lamp, electron microscopy; for conversion into the flurbiprofen acid form during transport into the eye: aqueous humor and vitreous humor after seven days. How it is done: Another experiment was performed with tetraethylene glycol flurbiprofenate and tetraethylene glycol bis-flurbiprofenate to determine the irritancy of these prodrugs in the rabbit eye.
25 microliters of tetraethylene flurbiprofenate were dropped into each eye of two rabbits each day for seven days. Also, 30 microliters of tetraethylene glycol bis-flurbiprofenate was dropped into each eye of two rabbits each day for 7 days. A control using 25 microliters of flurbiprofen was dropped into each eye of two rabbits for seven days. Each morning the rabbit's eyes were examined by slit lamp for evidence of cornea damage and irritation. After seven days the animals were sacrificed and samples of the aqueous humor and vitreous humor were obtained for analysis of flurbiprofen and a flurbiprofen ester. The eyes were also examined by electron microscopy. […] The test was repeated using 10 microliters of each of the substances each day for seven days with similar results.

For data set [2] the following is noted: animal and human experiments; cited from earlier work.
Another data set deals with Salmonella. Particulars: Ames type assays and chronic exposure studies; cited from earlier work.
For another data set, the system named is skin. Particulars: cited from earlier work.
The next data set has as its system cornea epithelium. As to the kind of experiment: differential scanning calorimetry of cornea epithelium of treated enucleated albino rabbit eyes. How it is done: The reduced cornea damage by polyethylene glycol flurbiprofenate and bis-flurbiprofenate prodrugs in albino rabbit eyes was assessed by differential scanning calorimetry. Tests were conducted to investigate the effects of flurbiprofen and the polyethylene glycol flurbiprofen ester and the diester prodrugs on the cornea epithelium. […] The effects of these drugs on the molecular structure of the cornea epithelium were assessed by differential scanning calorimetry. Fresh enucleated albino rabbit eyes were treated in solutions and also in suspensions of flurbiprofen and also in solutions and suspensions of the polyethylene glycol esters and diesters of flurbiprofen in isotonic glutathione buffered ringer solution for 10 minutes. The cornea epithelium was then scraped from the corneas and immediately analyzed by differential scanning calorimetry over the range of 40°-110° C.
Whenever a normal rabbit's cornea epithelium was analyzed a large endothermic transition at 64°±2° C. was observed. It has been established by previous work that this particular peak which was observed was due to a lipid.backslash.protein phase transition.
On the technique in general: In DSC, transitions show as peaks or steps in heat flow.

The next data set concerns cornea. Particulars: in vitro; cited from earlier work.
The conditions of data set [3]: man; cited from earlier work.
For data set [4] the following is noted: applied for treatment of inflammation; cited from earlier work.
The mark [5] stands for this setting: PB (7.4), read-out: t1/2 in PB (7.4) (converted).

In brackets after ≈: the same amount, converted by molar mass. Where two headings read alike, the source gives them in different places.

Consider `CC(C(=O)OCCOCCOCCOCCOCCOCCO)c1ccc(-c2ccccc2)c(F)c1` (stereo not drawn) [TC-242.2, hexaethylene glycol flurbiprofenate], for which the half-life in “t1/2 in serum (Table 1)” (read-out: t1/2 in serum) was found to be 0.367 h. In addition, the “t1/2 in PB (7.4)” value in data set [1] (PB (7.4)) was “several days”. In “Solubility (Table 1)” (read-out: Solubility), the solubility stood at 445 ± 34 µg/mL (≈ 875 µM).
`CC(C(=O)OCCOCCOCCOCCOC(=O)C(C)c1ccc(-c2ccccc2)c(F)c1)c1ccc(-c2ccccc2)c(F)c1` (stereo not drawn) [Compound G-202.2, tetraethylene glycol bis-2-(2-fluoro-4-biphenylyl)propionate]: the half-life in “t1/2 in serum (Table 1)” (read-out: t1/2 in serum) stood at 3.67 h. Moreover, the “t1/2 in PB (7.4)” value in data set [1] (PB (7.4)) is given as “low solubility”. Further, the solubility in the data set “Solubility (Table 1)” (read-out: Solubility) is < 0.1 µg/mL. Moreover, in the data set on rabbit eye, the “degree of irritation to the cornea as compared to flurbiprofen in the acid form” value is given as “significantly reduced” and the “conversion into the flurbiprofen acid form during transport into the eye” value is recorded as “converted into the flurbiprofen acid form during transport into the eye”.
`COc1ccc2cc(C(C)C(=O)OCCOCCOCCOCCOCCOCCOC(=O)C(C)c3ccc4cc(OC)ccc4c3)ccc2c1` (stereo not drawn) [Compound G-220.2, diester of naproxen and hexaethylene glycol]: in “t1/2 in serum (Table 1)” (read-out: t1/2 in serum), the half-life turned out to be 0.833 h. In addition, the “t1/2 in PB (7.4)” value in [1] (PB (7.4)) is “very slow”. In addition, in “Solubility (Table 1)” (read-out: Solubility), the solubility is < 0.1 µg/mL.
For `CC(C(=O)OCCOCCOCCOCCOCCOCCOC(=O)C(C)c1ccc(-c2ccccc2)c(F)c1)c1ccc(-c2ccccc2)c(F)c1` (stereo not drawn) [TC-242.1, hexaethylene glycol bis-flurbiprofenate], in that order: 2.78 h, “very slow” and < 0.1 µg/mL.
Turning to `COc1ccc2cc(C(C)C(=O)OCCOCCO)ccc2c1` (stereo not drawn) [Compound G-195.1], the half-life was 0.967 h in “t1/2 in serum (Table 1)” (read-out: t1/2 in serum) and 80 h in data set [1] (setting [5]). In addition, the solubility in “Solubility (Table 1)” (read-out: Solubility) is 553 ± 27 µg/mL (≈ 1740 µM).
For the compound `CC1(C)O[C@@H]2C[C@H]3[C@@H]4CCC5=CC(=O)C=C[C@]5(C)[C@@]4(F)[C@@H](O)C[C@]3(C)[C@]2(C(=O)COC(=O)OCCOCCOCCOCCO)O1` [Compound G-196.1, carbonate linked ester of triamcinolone acetonide and tetraethylene glycol], the half-life in the data set “t1/2 in serum (Table 1)” was 3.8 h; in [1] (pb) it was 136 h. Further, the concentration in solution in the data set “Solubility (Table 1)” (solubility) came to 391 ± 49 µg/mL (≈ 597 µM).
Take `CC(C(=O)OCCOCCOCCO)c1ccc(-c2ccccc2)c(F)c1` (stereo not drawn) [Compound G-60]: the half-life in “t1/2 in serum (Table 1)” (read-out: t1/2 in serum) is 0.75 h; in data set [1] (setting [5]), 175 h. The solubility in “Solubility (Table 1)” (read-out: Solubility) worked out at 135 ± 4 µg/mL (≈ 359 µM).
In the case of `CN1CCCC1=O` [N-methyl-2-pyrrolidone], the “irritation or sensitization potential” value in data set [2] was “very little irritation or sensitization potential”. Also, the toxicity result in the data set with Salmonella is reported as “have not revealed any significant toxicity”. Also, the penetration enhancement result with skin is “effective penetration enhancer”.
Consider `COc1ccc2cc(C(C)C(=O)OCCOCCOCCOCCOCCOCCO)ccc2c1` (stereo not drawn) [Compound G-220.1], for which the half-life in the data set “t1/2 in serum (Table 1)” (read-out: t1/2 in serum) amounted to 0.0617 h. For the same compound, in data set [1] (PB (7.4)), the “t1/2 in PB (7.4)” value is on record as “several days”. In addition, in the data set “Solubility (Table 1)” (read-out: Solubility), the solubility was 6430 ± 617 µg/mL (≈ 13000 µM).
With `COc1ccc2cc(C(C)C(=O)OCCOCCOCCOCCOC(=O)C(C)c3ccc4cc(OC)ccc4c3)ccc2c1` (stereo not drawn) [Compound G-219.2, diester of naproxen and tetraethylene glycol], in “t1/2 in serum (Table 1)” (read-out: t1/2 in serum), the half-life worked out at 0.433 h. The “t1/2 in PB (7.4)” value in data set [1] (PB (7.4)) is on record as “very slow”. Further, in “Solubility (Table 1)” (read-out: Solubility), the solubility is < 0.1 µg/mL.
The matching figures for `COc1ccc2cc(C(C)C(=O)OCCOCCOCCOC(=O)C(C)c3ccc4cc(OC)ccc4c3)ccc2c1` (stereo not drawn) [Compound G-192.2]: 0.833 h, “low solubility” and < 0.1 µg/mL.
With `CC(C(=O)OCCOCCOCCOCCO)c1ccc(-c2ccccc2)c(F)c1` (stereo not drawn) [Compound G-202.1, tetraethylene glycol 2-(2-fluoro-4-biphenylyl)propionate], the half-life was 0.533 h in the data set “t1/2 in serum (Table 1)” (read-out: t1/2 in serum) and 144 h in [1] (setting [5]). In addition, the solubility in “Solubility (Table 1)” (read-out: Solubility) turned out to be 228 ± 5 µg/mL (≈ 542 µM). For the same compound, the “degree of irritation to the cornea as compared to flurbiprofen in the acid form” value in the data set on rabbit eye was “significantly reduced”. The “conversion into the flurbiprofen acid form during transport into the eye” value in the data set on rabbit eye was “converted into the flurbiprofen acid form during transport into the eye”.
On to `CC(C(=O)O)c1ccc(-c2ccccc2)c(F)c1` (stereo not drawn) [flurbiprofen, 2(2-fluoro-4-biphenylyl)propionic acid], for which, in the data set on cornea epithelium, the “normal protein/lipid structure of cornea epithelium” value is recorded as “substantially total breakdown of the normal protein/lipid structure”. Also, the cornea barrier function entry in the data set with cornea is listed as “impairs cornea barrier function in vitro”. The irritation entry in data set [3] is “irritating in man”. Also, the local irritation result in data set [4] is recorded as “produces local irritation”.
Consider `COc1ccc2cc(C(C)C(=O)OCCOCCOCCO)ccc2c1` (stereo not drawn) [Compound G-192.1], for which the half-life in “t1/2 in serum (Table 1)” (read-out: t1/2 in serum) is 0.217 h; in data set [1] (setting [5]) it was 230 h. The solubility in the data set “Solubility (Table 1)” (read-out: Solubility) amounted to 943 ± 25 µg/mL (≈ 2600 µM).
Take `COc1ccc2cc(C(C)C(=O)OCCOCCOC(=O)C(C)c3ccc4cc(OC)ccc4c3)ccc2c1` (stereo not drawn) [Compound G-195.2, diester of naproxen and diethylene glycol]: the half-life in “t1/2 in serum (Table 1)” (read-out: t1/2 in serum) amounted to 1.25 h. Besides, in [1] (PB (7.4)), the “t1/2 in PB (7.4)” value is “low solubility”. For the same compound, the solubility in “Solubility (Table 1)” (read-out: Solubility) is < 0.1 µg/mL.
In the case of `CC1(C)O[C@@H]2C[C@H]3[C@@H]4CCC5=CC(=O)C=C[C@]5(C)[C@@]4(F)[C@@H](O)C[C@]3(C)[C@]2(C(=O)COC(=O)OCCOCCO)O1` [Compound G-197.1, carbonate linked ester of triamcinolone acetonide and diethylene glycol], the half-life in “t1/2 in serum (Table 1)” is 0.167 h; in data set [1] (pb) it was 101 h. For the same compound, the solubility in “Solubility (Table 1)” came to 74 ± 3 µg/mL (≈ 131 µM).
Regarding benzalkonium chloride, in the data set on cornea epithelium (compounds known to damage the cornea), the “intensity of the phase transition peak of cornea epithelium by DSC” value is reported as “greatly reduce the intensity of this observed peak”.
As for `COc1ccc2cc(C(C)C(=O)OCCOCCOCCOCCO)ccc2c1` (stereo not drawn) [Compound G-167, monoester of naproxen and tetraethylene glycol], the half-life in “t1/2 in serum (Table 1)” (read-out: t1/2 in serum) was 0.0833 h; in data set [1] (setting [5]), 300 h. Besides, in “Solubility (Table 1)” (read-out: Solubility), the solubility turned out to be 1120 ± 31 µg/mL (≈ 2740 µM).

The solubility is the dissolved amount per volume that the medium holds.
